Laboratory results as given in ChEMBL document CHEMBL3763124, “N-Benzylbenzamides: A Novel Merged Scaffold for Orally Available Dual Soluble Epoxide Hydrolase/Peroxisome Proliferator-Activated Receptor γ Modulators” (J Med Chem, 2016).
≈ marks a conversion by molar mass, not a printed value. Calls of active or inactive are those of the source. No cut-off for these calls is given here.

Key:
[1] = target: T1, Peroxisome proliferator-activated receptor gamma (Homo sapiens) (UniProt P37231); assay: Transactivation of human PPARgamma expressed in African green monkey COS7 cells at 10 uM incubated overnight by dual-glo luciferase reporter gene assay; type: cell-based; settings: COS-7
T1 sequence (whole entry): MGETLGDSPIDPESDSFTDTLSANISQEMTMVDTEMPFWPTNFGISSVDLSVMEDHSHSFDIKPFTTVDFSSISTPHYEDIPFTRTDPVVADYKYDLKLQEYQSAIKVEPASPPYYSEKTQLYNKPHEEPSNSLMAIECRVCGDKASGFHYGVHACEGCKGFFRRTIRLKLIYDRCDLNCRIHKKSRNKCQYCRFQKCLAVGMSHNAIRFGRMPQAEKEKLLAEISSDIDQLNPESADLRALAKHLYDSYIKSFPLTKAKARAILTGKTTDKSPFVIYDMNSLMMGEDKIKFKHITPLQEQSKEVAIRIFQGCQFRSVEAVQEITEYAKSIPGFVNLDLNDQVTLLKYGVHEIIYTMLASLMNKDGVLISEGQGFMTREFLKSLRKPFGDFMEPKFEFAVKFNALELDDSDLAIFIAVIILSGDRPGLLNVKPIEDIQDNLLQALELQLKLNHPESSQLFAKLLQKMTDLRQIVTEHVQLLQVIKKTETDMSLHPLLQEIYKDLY

[2] = Solubility of the compound in water by microplate reader analysis; type: physicochemical
[3] = target: T2, Peroxisome proliferator-activated receptor delta (Homo sapiens, UniProt Q03181); assay: Transactivation of human PPARdelta expressed in African green monkey COS7 cells incubated overnight by dual-glo luciferase reporter gene assay; type: cell-based; settings: cos-7
T2 sequence (Q03181 whole entry): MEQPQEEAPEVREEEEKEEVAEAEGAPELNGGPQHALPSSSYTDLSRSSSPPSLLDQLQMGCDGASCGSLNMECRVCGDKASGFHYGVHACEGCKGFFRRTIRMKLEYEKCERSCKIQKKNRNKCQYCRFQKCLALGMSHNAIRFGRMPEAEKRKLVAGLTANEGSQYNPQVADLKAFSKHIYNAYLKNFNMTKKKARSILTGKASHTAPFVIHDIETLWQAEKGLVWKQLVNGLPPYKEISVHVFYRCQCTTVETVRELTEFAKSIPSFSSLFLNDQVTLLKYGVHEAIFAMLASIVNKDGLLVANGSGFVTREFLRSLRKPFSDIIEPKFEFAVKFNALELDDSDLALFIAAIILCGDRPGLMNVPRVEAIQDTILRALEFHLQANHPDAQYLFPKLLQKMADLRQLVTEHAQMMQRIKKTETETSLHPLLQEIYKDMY

[4] = target: T3, Peroxisome proliferator-activated receptor alpha (Homo sapiens) (UniProt Q07869); assay: Transactivation of human PPARalpha expressed in African green monkey COS7 cells incubated overnight by dual-glo luciferase reporter assay relative to GW7647; type: cell-based; settings: COS-7
T3 sequence (whole entry): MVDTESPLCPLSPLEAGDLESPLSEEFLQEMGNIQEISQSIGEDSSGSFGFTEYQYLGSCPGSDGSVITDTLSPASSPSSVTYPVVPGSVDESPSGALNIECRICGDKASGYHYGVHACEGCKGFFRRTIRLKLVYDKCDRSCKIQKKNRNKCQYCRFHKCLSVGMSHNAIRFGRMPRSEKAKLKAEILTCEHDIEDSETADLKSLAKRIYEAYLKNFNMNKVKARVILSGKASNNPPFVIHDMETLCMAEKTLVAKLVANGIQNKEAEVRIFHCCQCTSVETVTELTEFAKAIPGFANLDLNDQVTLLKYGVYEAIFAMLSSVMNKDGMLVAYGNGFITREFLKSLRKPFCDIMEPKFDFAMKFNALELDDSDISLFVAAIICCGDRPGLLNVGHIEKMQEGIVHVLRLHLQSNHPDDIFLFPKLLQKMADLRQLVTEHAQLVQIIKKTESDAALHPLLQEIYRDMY

[5] = target: T4, Peroxisome proliferator-activated receptor delta (Homo sapiens) (UniProt Q03181); assay: Transactivation of human PPARdelta expressed in African green monkey COS7 cells at 10 uM incubated overnight by dual-glo luciferase reporter assay; type: cell-based; settings: COS-7
T4 sequence (whole entry): T2 sequence (Q03181 whole entry)

[6] = target: T5, Peroxisome proliferator-activated receptor alpha (Homo sapiens, UniProt Q07869); settings: cos-7
T5 sequence (Q07869 whole entry): T3 sequence (whole entry)
Description: (§1) Transactivation of human PPARalpha expressed in African green monkey COS7 cells incubated overnight by dual-glo luciferase reporter gene assay

[7] = target: T6, Bifunctional epoxide hydrolase 2 (Homo sapiens, UniProt P34913); assay: Inhibition of human recombinant sEH using PHOME as substrate preincubated for 30 mins followed by substrate addition measured for 30 mins by fluorescence-based assay
T6 sequence (P34913 whole entry): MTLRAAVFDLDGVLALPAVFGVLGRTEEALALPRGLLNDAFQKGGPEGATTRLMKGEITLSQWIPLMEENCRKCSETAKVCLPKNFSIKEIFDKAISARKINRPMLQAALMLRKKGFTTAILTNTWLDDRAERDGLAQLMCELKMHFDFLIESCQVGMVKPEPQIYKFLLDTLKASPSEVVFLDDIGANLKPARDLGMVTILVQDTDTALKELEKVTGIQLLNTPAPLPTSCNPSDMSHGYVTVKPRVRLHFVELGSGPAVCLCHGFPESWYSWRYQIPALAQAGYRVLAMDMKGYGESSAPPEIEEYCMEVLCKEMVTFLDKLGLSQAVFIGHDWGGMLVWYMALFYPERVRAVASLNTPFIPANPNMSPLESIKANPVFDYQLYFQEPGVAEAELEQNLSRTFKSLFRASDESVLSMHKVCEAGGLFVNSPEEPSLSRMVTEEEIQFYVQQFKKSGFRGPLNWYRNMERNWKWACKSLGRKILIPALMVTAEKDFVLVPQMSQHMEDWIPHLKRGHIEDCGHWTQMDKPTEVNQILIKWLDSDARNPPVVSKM

[8] = target: T5, Peroxisome proliferator-activated receptor alpha
Description: as §1

[9] = system: Mus musculus; assay: Tmax in RjOrl:Swiss (CD-1) mouse plasma assessed as 2-Ethyl-3-[4-(N-((2-trifluoromethyl)benzyl)benzamide)]-propionic Acid at 30 mg/kg, po administered as single dose; type: ADME, organism-based; settings: in vivo
[10] = system: Mus musculus; assay: AUC (0 to infinity) in RjOrl:Swiss (CD-1) mouse plasma assessed as 2-Ethyl-3-[4-(N-((2-trifluoromethyl)benzyl)benzamide)]-propionic Acid at 30 mg/kg, po administered as single dose; type: ADME, organism-based; parameters: dose 30 mg/kg, route oral, time infinity; settings: in vivo
[11] = system: Mus musculus; assay: Apparent oral clearance in RjOrl:Swiss (CD-1) mouse plasma assessed as 2-Ethyl-3-[4-(N-((2-trifluoromethyl)benzyl)benzamide)]-propionic Acid at 30 mg/kg administered as single dose; type: ADME, organism-based; settings: in vivo
[12] = system: Mus musculus; assay: Apparent volume of distribution during terminal phase in RjOrl:Swiss (CD-1) mouse plasma assessed as 2-Ethyl-3-[4-(N-((2-trifluoromethyl)benzyl)benzamide)]-propionic Acid at 30 mg/kg, po administered as single dose; type: ADME, organism-based; settings: in vivo
[13] = system: Brain; assay: Drug uptake in RjOrl:Swiss (CD-1) mouse brain assessed as 2-Ethyl-3-[4-(N-((2-trifluoromethyl)benzyl)benzamide)]-propionic Acid at 30 mg/kg, po administered as single dose; type: ADME, organism-based; settings: in vivo
[14] = system: Mus musculus; assay: Drug metabolism in RjOrl:Swiss (CD-1) mouse plasma assessed as 2-Ethyl-3-[4-(N-((2-trifluoromethyl)benzyl)benzamide)]-propionic Acid formation at 30 mg/kg, po administered as single dose; type: ADME, organism-based; settings: in vivo
[15] = system: Mus musculus; assay: Cmax in RjOrl:Swiss (CD-1) mouse plasma assessed as 2-Ethyl-3-[4-(N-((2-trifluoromethyl)benzyl)benzamide)]-propionic Acid at 30 mg/kg, po administered as single dose; type: ADME, organism-based; parameters: dose 30 mg/kg, route oral; settings: in vivo
[16] = target: T7, Peroxisome proliferator-activated receptor gamma (Homo sapiens, UniProt P37231); settings: cos-7
T7 sequence (P37231 whole entry): T1 sequence (whole entry)
Description: Transactivation of human PPARgamma expressed in African green monkey COS7 cells incubated overnight by dual-glo luciferase reporter gene assay

O=C(O)c1ccc(-c2ccc(C(=O)NCc3ccccc3C(F)(F)F)cc2)cc1
Activity [1]: 30% | solubility [2]: 3.75 µM (≈ 1.5 µg/mL) | EC50 [3]: Not Active | Emax [4]: inactive | Emax [5]: inactive | EC50 [6]: Not Active

CCC(Cc1ccc(C(=O)NCc2ccc(Oc3ccccc3)cc2)cc1)C(=O)O (stereo not given)
IC50 [7]: 12 µM | Emax [5]: 20% | EC50 [8]: 0.9 µM

O=C(O)c1cccc(-c2ccc(C(=O)NCc3ccccc3C(F)(F)F)cc2)c1
Activity [1]: 28% | EC50 [3]: Not Active | Emax [4]: inactive | Emax [5]: inactive | EC50 [6]: Not Active

CCC(Cc1ccc(C(=O)NCc2ccc(C(F)(F)F)cc2)cc1)C(=O)O (stereo not given)
IC50 [7]: 7.2 µM | EC50 [3]: Not Active | EC50 [8]: 7 µM

CCOC(=O)C(CC)Cc1ccc(C(=O)NCc2ccccc2C(F)(F)F)cc1 (stereo not given)
Tmax [9]: 30 min | AUC [10]: 4026 ng·h/mL | CL/F [11]: 125 mL/min/kg | Vz/F [12]: 54.3 L/kg | Drug uptake [13]: 30 ng/g | solubility [2]: 2.5 µM (≈ 1.02 µg/mL) | EC50 [3]: Not Active | Emax [4]: inactive | Emax [5]: inactive | Drug metabolism [14]: metabolite_detected | Cmax [15]: 2000 nM | EC50 [6]: Not Active

O=C(NCc1ccccc1C(F)(F)F)c1ccc(-c2nnn[nH]2)cc1
solubility [2]: 375 µM (≈ 130 µg/mL) | EC50 [3]: Not Active | Emax [4]: inactive | Emax [5]: inactive | EC50 [6]: Not Active | EC50 [16]: Not Active
